This assay deals with T1, STAT6 (Homo sapiens, UniProt P42226).
T1 construct: stably transfected HaCaT keratinocyte cell line, which expresses NanoLuc luciferase reporter gene under the transcriptional control of the STAT6 responsive promoter; endogenous in cells; host or cells: HaCaT keratinocyte reporter cell line (stably transfected with a NanoLuc reporter)
T1 sequence (P42226 1-847): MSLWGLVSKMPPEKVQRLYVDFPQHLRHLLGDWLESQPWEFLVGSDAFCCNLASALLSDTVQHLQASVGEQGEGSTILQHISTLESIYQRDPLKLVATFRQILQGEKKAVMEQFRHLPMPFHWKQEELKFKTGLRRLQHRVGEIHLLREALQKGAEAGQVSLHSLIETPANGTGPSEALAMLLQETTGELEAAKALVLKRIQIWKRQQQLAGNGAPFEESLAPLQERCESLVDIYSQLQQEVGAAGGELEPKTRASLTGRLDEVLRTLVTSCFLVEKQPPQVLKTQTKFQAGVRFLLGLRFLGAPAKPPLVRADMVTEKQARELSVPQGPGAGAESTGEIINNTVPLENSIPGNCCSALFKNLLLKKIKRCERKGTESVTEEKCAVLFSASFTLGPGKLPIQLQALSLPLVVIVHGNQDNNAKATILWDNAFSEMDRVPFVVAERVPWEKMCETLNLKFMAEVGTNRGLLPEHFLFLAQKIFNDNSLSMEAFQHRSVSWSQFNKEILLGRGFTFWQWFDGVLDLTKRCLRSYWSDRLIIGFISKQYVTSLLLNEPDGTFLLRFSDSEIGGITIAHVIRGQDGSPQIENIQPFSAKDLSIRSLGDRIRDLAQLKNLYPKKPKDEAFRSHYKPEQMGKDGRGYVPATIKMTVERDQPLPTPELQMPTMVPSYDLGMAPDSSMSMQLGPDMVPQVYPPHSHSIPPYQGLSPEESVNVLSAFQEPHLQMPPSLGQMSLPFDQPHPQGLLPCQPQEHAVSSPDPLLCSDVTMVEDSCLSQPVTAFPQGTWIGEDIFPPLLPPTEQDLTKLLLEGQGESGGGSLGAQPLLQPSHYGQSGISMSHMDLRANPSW
Put plainly: STAT6 Reporter Luciferase Assay (IL-13 stimulated HaCaT keratinocyte NanoLuc reporter cells). The format is cell-based. Conditions: IL-13 stimulated HaCaT STAT6 NanoLuc reporter cells; read-out: Reporter EC50. The method, then:
Pharmacological measurements of STAT6 transcriptional activity through the IL-13-IL-13 receptor/IL-4 receptor pathway were made with a stably transfected HaCaT keratinocyte cell line, which expresses NanoLuc luciferase reporter gene under the transcriptional control of the STAT6 responsive promoter for IL-13Ra2. The readout of the STAT6 activity utilized Promega Nano-Glo Luciferase assay kit.
The reporter cells were cultured in a growth media comprised of DMEM High Glucose, no calcium and no glutamine, 10% heat inactivated fetal bovine serum (HI FBS), 1% 100× Glutamax, and 100 U/mL Penicillin-Streptomycin (units of penicillin in 1 mL of streptomycin). Seven thousand cells were plated in 25 microliter (μL) per well in a 384-well, white bottom, tissue culture plate. Cells were cultured overnight at 37° C. The next day, test compounds (solubilized and serially diluted in DMSO, in an 11 point, 4-fold dilution series in duplicate) were spotted, 60 nanoliters (nL) per well, into a 384 well v-bottom polypropylene plate. Thirty μL per well of 37° C. dosing media (Dulbecco's modified eagle medium (DMEM) High Glucose, no calcium and no glutamine with 2% HI FBS) was added to the compound plate. Growth media was removed from the cell plate, and the cells were washed with DPBS. Twenty μL per well of compounds diluted in dosing media were transferred from the compound plate to the cell plate and the compounds were further diluted with an additional 15 μL of dosing media in the cell plate: the cell plate was incubated for two hours at 37° C. After two hours, STAT6 activity was stimulated with the addition of 5 μL per well of IL-13 (R&D Systems) in dosing media with a final concentration of 0.12 nM IL13. Cells were incubated at 37° C. for 4 hours to allow for reporter gene expression, then all media was removed from the plate. The cell plates were treated with assay buffer and Luciferase substrate from Nano-Glo Luciferase Assay Kit for 15 min and then measured for luminescence on an EnVision 2105 multilabel reader (PerkinElmer).
Turning to `CC(C)n1nc(C(=O)NCc2ccc(NC(=O)N(C)C)cc2)c2c1CCN(c1ccc(C(=O)N3C[C@H]4CCO[C@H]4C3)cn1)C2` (racemic) [Example 331, rac-N-(4-(3,3-dimethylureido)benzyl)-5-(5-((3aR,6aR)-hexahydro-2H-furo[2,3-c]pyrrole-5-carbonyl)pyridin-2-yl)-1-isopropyl-4,5,6,7-tetrahydro-1H-pyrazolo[4,3-c]pyridine-3-carboxamide], the EC50 is 606 nM. In the case of `CO[C@@H]1CN(C(=O)c2ccc(N3CCc4c(c(C(=O)NCc5ccc(NC(=O)N(C)C)cc5)nn4C(C)C)C3)nc2)C[C@H]1OC` (racemic) [Example 333, rac-5-(5-((3R,4R)-3,4-dimethoxypyrrolidine-1-carbonyl)pyridin-2-yl)-N-(4-(3,3-dimethylureido)benzyl)-1-isopropyl-4,5,6,7-tetrahydro-1H-pyrazolo[4,3-c]pyridine-3-carboxamide] it was 2800 nM; in that of `CC(C)n1nc(C(=O)NCc2ccc(NC(=O)N(C)C)cc2)c2c1CCN(c1ccc(C(=O)N3C[C@@H]4OC(=O)N(C)[C@@H]4C3)cn1)C2` (racemic) [Example 334, rac-N-(4-(3,3-dimethylureido)benzyl)-1-isopropyl-5-(5-((3aR,6aS)-3-methyl-2-oxohexahydro-2H-pyrrolo[3,4-d]oxazole-5-carbonyl)pyridin-2-yl)-4,5,6,7-tetrahydro-1H-pyrazolo[4,3-c]pyridine-3-carboxamide], 176 nM; in that of `CC(C)n1nc(C(=O)NCc2ccc(NC(=O)N3CCN(C)CC3)cc2)c2c1C(C(F)(F)F)CN(c1ccc(C(=O)N(C)C)cn1)C2` (racemic) [Example 701, rac-(R)-5-(5-(dimethylcarbamoyl)pyridin-2-yl)-1-isopropyl-N-(4-(4-methylpiperazine-1-carboxamido)benzyl)-7-(trifluoromethyl)-4,5,6,7-tetrahydro-1H-pyrazolo[4,3-c]pyridine-3-carboxamide], 0.4 nM. With `CC(C)n1nc(C(=O)NCc2ccc(NC(=O)N3CCN(C)CC3)cc2)c2c1C(C(F)(F)F)CN(c1ccc(C(=O)N(C)C)cc1)C2` (racemic) [Example 703, rac-(R)-5-(4-(dimethylcarbamoyl)phenyl)-1-isopropyl-N-(4-(4-methylpiperazine-1-carboxamido)benzyl)-7-(trifluoromethyl)-4,5,6,7-tetrahydro-1H-pyrazolo[4,3-c]pyridine-3-carboxamide], the EC50 was 1 nM.

In the case of `CC(C)n1nc(C(=O)NCc2ccc(NC(=O)N3CCNCC3)cc2)c2c1C(C(F)(F)F)CN(c1ccc(C(=O)N(C)C)cc1)C2` (racemic) [Example 704, rac-(R)-5-(4-(dimethylcarbamoyl)phenyl)-1-isopropyl-N-(4-(piperazine-1-carboxamido)benzyl)-7-(trifluoromethyl)-4,5,6,7-tetrahydro-1H-pyrazolo[4,3-c]pyridine-3-carboxamide], the EC50 was determined as 1 nM. For `COCCC1(N)CCN(C(=O)Nc2ccc(CNC(=O)c3nn(C(C)C)c4c3CN(c3ccc(C(=O)N(C)C)cc3)C[C@@H]4C)cc2)C1` (single isomer, unassigned) [Example 670, (S)-N-(4-((R*)-3-amino-3-(2-methoxyethyl)pyrrolidine-1-carboxamido)benzyl)-5-(4-(dimethylcarbamoyl)phenyl)-1-isopropyl-7-methyl-4,5,6,7-tetrahydro-1H-pyrazolo[4,3-c]pyridine-3-carboxamide], the EC50 was 1 nM.

Take `COCCC1(N)CCN(C(=O)Nc2ccc(CNC(=O)c3nn(C(C)C)c4c3CN(c3ccc(C(=O)N(C)C)cc3)C[C@@H]4C)cc2)C1` (single isomer, unassigned) [Example 671, (S)-N-(4-((R*)-3-amino-3-(2-methoxyethyl)pyrrolidine-1-carboxamido)benzyl)-5-(4-(dimethylcarbamoyl)phenyl)-1-isopropyl-7-methyl-4,5,6,7-tetrahydro-1H-pyrazolo[4,3-c]pyridine-3-carboxamide]: the concentration giving a half-maximal response (EC50) is 3 nM. `COCC1(N)CCN(C(=O)Nc2ccc(CNC(=O)c3nn(C(C)C)c4c3CN(c3ccc(C(=O)N(C)C)cc3)C[C@@H]4C)cc2)C1` (single isomer, unassigned) [Example 672, (S)-N-(4-((R*)-3-amino-3-(methoxymethyl)pyrrolidine-1-carboxamido)benzyl)-5-(4-(dimethylcarbamoyl)phenyl)-1-isopropyl-7-methyl-4,5,6,7-tetrahydro-1H-pyrazolo[4,3-c]pyridine-3-carboxamide]: the EC50 is 1 nM.

Turning to `COCC1(N)CCN(C(=O)Nc2ccc(CNC(=O)c3nn(C(C)C)c4c3CN(c3ccc(C(=O)N(C)C)cc3)C[C@@H]4C)cc2)C1` (single isomer, unassigned) [Example 673, (S)-N-(4-((R*)-3-amino-3-(methoxymethyl)pyrrolidine-1-carboxamido)benzyl)-5-(4-(dimethylcarbamoyl)phenyl)-1-isopropyl-7-methyl-4,5,6,7-tetrahydro-1H-pyrazolo[4,3-c]pyridine-3-carboxamide], the EC50 stood at 2 nM. Take `CC(C)n1nc(C(=O)NCc2ccc(NC(=O)N3CCN(C)CC3)cc2)c2c1C(C(F)(F)F)CN(c1ccc(C(=O)N(C)C)cn1)C2` (single isomer, unassigned) [Example 692, rel-(R or S)-5-(5-(dimethylcarbamoyl)pyridin-2-yl)-1-isopropyl-N-(4-(4-methylpiperazine-1-carboxamido)benzyl)-7-(trifluoromethyl)-4,5,6,7-tetrahydro-1H-pyrazolo[4,3-c]pyridine-3-carboxamide]: the EC50 is 0.3 nM. For the compound `CC(C)n1nc(C(=O)NCc2ccc(NC(=O)N3CCN(C)CC3)cc2)c2c1C(C(F)(F)F)CN(c1ccc(C(=O)N(C)C)cn1)C2` (single isomer, unassigned) [Example 693, rel-(R or S)-5-(5-(dimethylcarbamoyl)pyridin-2-yl)-1-isopropyl-N-(4-(4-methylpiperazine-1-carboxamido)benzyl)-7-(trifluoromethyl)-4,5,6,7-tetrahydro-1H-pyrazolo[4,3-c]pyridine-3-carboxamide], the EC50 is 16 nM. Take `CCn1nc(C(=O)NCc2ccc(NC(=O)N3CCN(C)CC3)cc2)c2c1C(C(F)(F)F)CN(c1ccc(C(=O)N(C)C)cn1)C2` (single isomer, unassigned) [Example 694, rel-(R or S)-5-(5-(dimethylcarbamoyl)pyridin-2-yl)-1-ethyl-N-(4-(4-methylpiperazine-1-carboxamido)benzyl)-7-(trifluoromethyl)-4,5,6,7-tetrahydro-1H-pyrazolo[4,3-c]pyridine-3-carboxamide]: the concentration for a half-maximal effect (EC50) came out at 0.3 nM. For the compound `CCn1nc(C(=O)NCc2ccc(NC(=O)N3CCN(C)CC3)cc2)c2c1C(C(F)(F)F)CN(c1ccc(C(=O)N(C)C)cn1)C2` (single isomer, unassigned) [Example 695, rel-(R or S)-5-(5-(dimethylcarbamoyl)pyridin-2-yl)-1-ethyl-N-(4-(4-methylpiperazine-1-carboxamido)benzyl)-7-(trifluoromethyl)-4,5,6,7-tetrahydro-1H-pyrazolo[4,3-c]pyridine-3-carboxamide], the EC50 came to 32 nM.

For the origin of these results see patent US20250320213A1, “Nitrogen-Containing Heterocyclic Compounds” (Pfizer Inc., priority 2024, published 2025).
